Our source for the IC50 values is PubChem BioAssay AID2305 (GlaxoSmithKline (GSK), 2010).

What is called IC50 is the midpoint of a concentration-inhibition curve. Read a high IC50 as lower potency.

The structures appear in SMILES notation.

This assay has as its system P. falciparum 3D7 growth, pLDH absorbance. Description: blood-stage malaria parasite growth potency – strain 3D7, dose response (AID 2305).
With `Nc1nc(N)c2cc(C(F)(F)F)ccc2n1`, the half-maximal inhibitory concentration (IC50) worked out at 1130 nM.

With `CO/C(=C\C=C\c1cc2cc(Cl)c(Cl)cc2[nH]1)C(=O)NCCCN1CC(C)N(C)CC1C` (centres undefined), the half-inhibitory concentration (IC50) came to 1130 nM.

In the case of `Nc1c(C(=O)NCCCCN2CCN(c3nsc4ccccc34)CC2)sc2ccccc12`, the concentration for half-maximal inhibition (IC50) is 1320 nM.

Regarding `Cn1cc(C(=O)Nc2cccc(-c3cccc(-c4nc5ccccc5[nH]4)c3)c2)n(C)c1=O`, the IC50 came out at 710 nM.

As to `CCOCCCn1c(=N)c(C(=O)NC(C)c2ccccc2)cc2c(=O)n3cccc(C)c3nc21` (centres undefined), the IC50 was found to be 1200 nM.

On to `Cc1cc(N(CCO)CCCN2CCCCC2)nc(Nc2ccc(Cl)cc2)n1`, for which the IC50 turned out to be 550 nM.

In turn, `CC(C(=O)OCCOCn1cnc2c(=O)[nH]c(N)nc21)N(C)C(=O)OC(C)(C)C` (centres undefined) registered an IC50 of 1000 nM.

Turning to `Nc1c2c(nc3ccc(Oc4ccc(Br)cc4Br)cc13)CCCC2`, the concentration for half-maximal inhibition (IC50) was 860 nM.

In turn, `CCCCc1cc(NCc2ccncc2)nc(Nc2ccc(OC)cc2)n1` yielded an IC50 of 1060 nM.

Compound `Cc1cc(F)ccc1-c1nc(NCCCNCCc2ccccc2)nc2c1ccc(=O)n2-c1c(F)cccc1F` came in with an IC50 of 190 nM.

The compound `COc1ccc(C(=O)CCC(=O)N(Cc2ccc(-c3ccc(CNCCc4ccc(S(C)(=O)=O)cc4)cn3)cc2)C(C)CN(C)C)cc1F` (centres undefined) came in with an IC50 of 650 nM.

For `Cc1cc(NCCc2ccccc2)nc(/N=C(\N)Nc2ccccc2Cl)n1`, the IC50 came to 790 nM.

For the compound `CC(=O)Nc1nc(C(=O)Nc2cccc(-c3ccc(-c4nc5c(C)cccc5[nH]4)s3)c2)cs1`, the concentration for half-maximal inhibition (IC50) was 220 nM.

For `CC(C)(CNCc1ccc(F)c(F)c1)c1nc(-c2ccc(Cl)c(O)c2)c(-c2ccnc(N)n2)[nH]1`, the IC50 amounted to 740 nM.

Take `COc1cccc(CNC(=O)c2cnc(N3CCN(c4ccncc4)CC3)c(Cl)c2)c1`: the IC50 came out at 1150 nM.

Take `O=C(C=NO)Nc1ccccc1[N+](=O)[O-]`: the IC50 amounted to 790 nM.

As for `CN1CCN(CC(=O)Nc2ccc(-c3csc(-c4nc5ccccc5[nH]4)c3)cc2)CC1`, the IC50 was determined as 1560 nM.

`CC(Cc1ccc(NC(=O)[C@@H](C)NCCc2cccc(Cl)c2)cc1)NCCc1cccc(Cl)c1` (some centres undefined): the IC50 was found to be 780 nM.

On to `CN(Cc1ccccc1)C1CCCN(c2cc(NC(=O)c3ccc(F)cc3)ccn2)C1` (centres undefined), for which the IC50 is 990 nM.

`CCSc1ccccc1COc1c(C)nc(N)nc1N` had an IC50 of 70 nM.

Turning to `Cc1cc(I)ccc1Nc1nc2nonc2nc1Nc1ccc(I)cc1C`, the IC50 amounted to 510 nM.

In turn, `CCCNS(=O)(=O)c1ccc(NC(=O)C(C)Oc2ccc([N+](=O)[O-])cc2)cc1` (centres undefined) displayed an IC50 of 720 nM.

For the compound `CCCNCc1ccc(-c2ccc(CN(CCOC)C(=O)c3cscn3)cc2)nc1`, the IC50 worked out at 180 nM.

On to `COc1ccc2ncc(F)c(CCN3C[C@H](CNCc4ccc5ccccc5c4)[C@H](O)C3)c2n1`, for which the 50% inhibitory concentration (IC50) came out at 500 nM.

In turn, `CC(=O)Nc1nnc(SCc2c(C)cc(C(C)(C)C)cc2C)s1` showed an IC50 of 700 nM.

For the compound `CCCCCCNC(=O)C1Cc2c([nH]c3ccc(C)cc23)C2(CCN(CCc3ccccc3)CC2)N1` (centres undefined), the half-maximal inhibitory concentration (IC50) was determined as 1270 nM.

Turning to `COc1ccc2c(NN=CC=Cc3ccccc3)ccnc2c1`, the 50% inhibitory concentration (IC50) was found to be 770 nM.

In turn, `C#CCOc1ccc(N2C(N)=NC(N)=NC2(C)C)cc1` showed a half-maximal inhibitory concentration (IC50) of 70 nM.

`S=C(NN=Cc1ccccn1)NC1C[C@H]2C=C[C@@H]1C2` (some centres undefined) displayed a half-maximal inhibitory concentration (IC50) of 720 nM.

In turn, `OCC1CCN(Cc2ccc(-c3ccc(-c4nc5ccc(C(F)(F)F)cc5[nH]4)cc3)cc2)CC1` came in with an IC50 of 700 nM.

The compound `CN1CCN(c2ccc(Nc3ncc([N+](=O)[O-])c(Nc4ccccc4O)n3)cc2)CC1` had a concentration for half-maximal inhibition (IC50) of 720 nM.

As to `COc1cc(C(=O)N2CCN(C(C)C)CC2)ccc1CN(C)CCCCN1CCN(c2cccc(Cl)c2Cl)CC1`, the IC50 worked out at 700 nM.

The compound `CCc1c(CCNCCCCCCNCCc2ccc(OC)c(OC)c2C)ccc(OC)c1OC` returned an IC50 of 1570 nM.

The compound `CC[C@H]1CN2CC[C@H]1C[C@H]2[C@H](O)c1cc(-c2ccccc2F)nc2ccc(OC)cc12` registered a concentration for half-maximal inhibition (IC50) of 80 nM.

Regarding `Cc1ccc2nc(C)cc(NN=Cc3ccc([N+](=O)[O-])o3)c2c1`, the half-maximal inhibitory concentration (IC50) worked out at 750 nM.

`O=c1[nH]ccc2nc(N[C@@H]3CCCNC3)nc(Nc3ccc(S(=O)(=O)N4CCOCC4)cc3)c12` registered an IC50 of 740 nM.

Turning to `CCc1cccc(NC(=O)c2ccc(CN3CCCN(CC4CCCCC4)CC3)cc2)c1`, the IC50 worked out at 400 nM.

Regarding `CCOc1ccc2nc3cc(N)ccc3c(N)c2c1`, the half-inhibitory concentration (IC50) stood at 530 nM.

`CCn1cc(CN2CCCC(C(=O)Nc3ccc(-c4nc5ccccc5[nH]4)cc3)C2)c(C)n1` (centres undefined): the half-inhibitory concentration (IC50) stood at 800 nM.

Compound `Cc1ccc(-c2nc(N3CCN(C(=O)c4ccco4)CC3)c3ccc(Cl)cc3n2)cc1` showed a concentration for half-maximal inhibition (IC50) of 1210 nM.

Consider `CC(C)N1CCC(N(Cc2ccc(-c3ccc(C(F)(F)F)cc3)cc2)C(=O)CCCn2c(CCc3cccc(F)c3F)nc(=O)c3ccccc32)CC1`, for which the IC50 amounted to 970 nM.

The compound `COc1ccc2nccc([C@@H](O)CN3CCC(NCC(O)Cc4ccccc4)CC3)c2c1` (some centres undefined) gave an IC50 of 670 nM.

Compound `CC(=O)c1cccc(Nc2nc3c(C#N)c(OCc4cc(Cl)cc(Cl)c4)ccc3[nH]2)c1` displayed a half-inhibitory concentration (IC50) of 870 nM.

Compound `CCN(CC)CCN(Cc1ccc(-c2ccc(C(F)(F)F)cc2)cc1)C(=O)CN1C(CCc2cccc(F)c2F)=NS(=O)(=O)c2ccccc21` had a half-inhibitory concentration (IC50) of 240 nM.
